Measurements: ChEMBL document CHEMBL3244013, “Central nervous system activity of a novel class of annelated 1,4-benzodiazepines, aminomethylene-2,4-dihydro-1H-imidazo[1,2-a][1,4]benzodiazepin-1-ones” (J Med Chem, 1977)

How the values were obtained:
Mus musculus [1] = assay: Anticonvulsant activity in po dosed CD-1 mouse assessed as protection against maximal electroshock-induced convulsion; type: functional; conditions: CD-1, po
Mus musculus [2] = assay: Anticonvulsant activity in po dosed CD-1 mouse assessed as protection against pentylenetetrazole-induced convulsion; type: functional; conditions: CD-1, po
Mus musculus [3] = assay: Anticonvulsant activity in po dosed CD-1 mouse assessed as protection against strychnine-induced convulsion after 30 mins; type: functional; conditions: CD-1, po, 0.5 h
Mus musculus [4] = assay: Potentiation of hexobarbital-induced sedative effect in po dosed CD-1 mouse assessed as loss of righting reflex after 30 secs; type: functional; conditions: CD-1, po
Mus musculus [5] = assay: Potentiation of chlorprothixene-induced sedative effect in po dosed CD-1 mouse assessed as loss of righting reflex; type: functional; conditions: CD-1, po
Mus musculus [6] = assay: Induction of muscle relaxation in po dosed CD-1 mouse after 30 mins by rotary drum test; type: functional; conditions: CD-1, po, 0.5 h
Mus musculus [7] = assay: Acute toxicity in po dosed CD-1 mouse assessed as mortality after 24 hrs; type: organism-based; conditions: in vivo
Mus musculus [8] = assay: Antianxiety activity in po dosed CD-1 mouse assessed as inhibition of foot shock-induced aggression after 30 mins relative to control; type: functional; conditions: CD-1, po, 0.5 h

N/C=C1\N=C2CN=C(c3ccccc3)c3cc(Cl)ccc3N2C1=O
ED50 (Mus musculus [1]): > 50 mg/kg
ED50 (Mus musculus [2]): 7.1 mg/kg
ED50 (Mus musculus [3]): > 50 mg/kg
ED50 (Mus musculus [4]): 1.65 mg/kg
ED50 (Mus musculus [5]): 4.3 mg/kg
ED50 (Mus musculus [6]): > 50 mg/kg
ED50 (Mus musculus [7]): > 1000 mg/kg

O=C1/C(=C/N2CCN(c3ccccc3)CC2)N=C2CN=C(c3ccccc3)c3cc(Cl)ccc3N12
ED50 (Mus musculus [8]): > 50 mg/kg
ED50 (Mus musculus [1]): > 50 mg/kg
ED50 (Mus musculus [2]): 26 mg/kg
ED50 (Mus musculus [3]): > 50 mg/kg
ED50 (Mus musculus [4]): > 50 mg/kg
ED50 (Mus musculus [5]): > 50 mg/kg
ED50 (Mus musculus [6]): > 50 mg/kg
ED50 (Mus musculus [7]): > 1000 mg/kg

CN1CCN(/C=C2\N=C3CN=C(c4ccccc4)c4cc([N+](=O)[O-])ccc4N3C2=O)CC1
ED50 (Mus musculus [8]): 2.2 mg/kg
ED50 (Mus musculus [1]): 4.2 mg/kg
ED50 (Mus musculus [2]): 0.92 mg/kg
ED50 (Mus musculus [3]): 6.6 mg/kg
ED50 (Mus musculus [4]): 3.6 mg/kg
ED50 (Mus musculus [5]): 4.5 mg/kg
ED50 (Mus musculus [6]): 8.6 mg/kg
ED50 (Mus musculus [7]): > 1000 mg/kg

CNC1=Nc2ccc(Cl)cc2C(c2ccccc2)=[N+]([O-])C1 [CHLORDIAZEPOXIDE]
ED50 (Mus musculus [8]): 7 mg/kg
ED50 (Mus musculus [1]): 8 mg/kg
ED50 (Mus musculus [2]): 1.9 mg/kg
ED50 (Mus musculus [3]): 5 mg/kg
ED50 (Mus musculus [4]): 64 mg/kg
ED50 (Mus musculus [5]): 4 mg/kg
ED50 (Mus musculus [6]): 6.8 mg/kg

CN1CCN(/C=C2\N=C3CN=C(c4ccccc4F)c4cc([N+](=O)[O-])ccc4N3C2=O)CC1
ED50 (Mus musculus [8]): 0.26 mg/kg
ED50 (Mus musculus [1]): 1.2 mg/kg
ED50 (Mus musculus [2]): 0.13 mg/kg
ED50 (Mus musculus [3]): 0.46 mg/kg
ED50 (Mus musculus [4]): 0.8 mg/kg
ED50 (Mus musculus [5]): 1.6 mg/kg
ED50 (Mus musculus [6]): 1.5 mg/kg
ED50 (Mus musculus [7]): > 1000 mg/kg

CCCCN/C=C1\N=C2CN=C(c3ccccc3)c3cc(Cl)ccc3N2C1=O
ED50 (Mus musculus [8]): 3.35 mg/kg
ED50 (Mus musculus [1]): 12.5 mg/kg
ED50 (Mus musculus [2]): 1.15 mg/kg
ED50 (Mus musculus [3]): 17 mg/kg
ED50 (Mus musculus [4]): 0.66 mg/kg
ED50 (Mus musculus [5]): 1.8 mg/kg
ED50 (Mus musculus [6]): 24 mg/kg
ED50 (Mus musculus [7]): > 1000 mg/kg

CN1CCN(/C=C2\N=C3CN=C(c4ccccc4Cl)c4cc([N+](=O)[O-])ccc4N3C2=O)CC1 [LOPRAZOLAM]
ED50 (Mus musculus [8]): 0.42 mg/kg
ED50 (Mus musculus [1]): 0.76 mg/kg
ED50 (Mus musculus [2]): 0.028 mg/kg
ED50 (Mus musculus [3]): 0.41 mg/kg
ED50 (Mus musculus [4]): 1 mg/kg
ED50 (Mus musculus [5]): 1.1 mg/kg
ED50 (Mus musculus [6]): 2.2 mg/kg
ED50 (Mus musculus [7]): > 1000 mg/kg

CN1CCN(/C=C2\N=C3CN=C(c4ccccc4)c4cc(Cl)ccc4N3C2=O)CC1
ED50 (Mus musculus [8]): 2.65 mg/kg
ED50 (Mus musculus [1]): 2.1 mg/kg
ED50 (Mus musculus [2]): 0.9 mg/kg
ED50 (Mus musculus [3]): 7.1 mg/kg
ED50 (Mus musculus [4]): 4.9 mg/kg
ED50 (Mus musculus [5]): 4.6 mg/kg
ED50 (Mus musculus [6]): 4.2 mg/kg
ED50 (Mus musculus [7]): > 1000 mg/kg

CN(C)/C=C1\N=C2CN=C(c3ccccc3)c3cc(Cl)ccc3N2C1=O
ED50 (Mus musculus [8]): 14 mg/kg
ED50 (Mus musculus [1]): 42 mg/kg
ED50 (Mus musculus [2]): 5 mg/kg
ED50 (Mus musculus [3]): > 50 mg/kg
ED50 (Mus musculus [4]): > 50 mg/kg
ED50 (Mus musculus [5]): > 50 mg/kg
ED50 (Mus musculus [6]): > 50 mg/kg
ED50 (Mus musculus [7]): > 1000 mg/kg

C=CCN1CCN(/C=C2\N=C3CN=C(c4ccccc4)c4cc(Cl)ccc4N3C2=O)CC1
ED50 (Mus musculus [8]): 2.3 mg/kg
ED50 (Mus musculus [1]): 13.5 mg/kg
ED50 (Mus musculus [2]): 21 mg/kg
ED50 (Mus musculus [3]): > 50 mg/kg
ED50 (Mus musculus [4]): 25 mg/kg
ED50 (Mus musculus [5]): 18 mg/kg
ED50 (Mus musculus [6]): 13 mg/kg
ED50 (Mus musculus [7]): > 1000 mg/kg

CN1CCCC/C1=C1\N=C2CN=C(c3ccccc3)c3cc(Cl)ccc3N2C1=O
ED50 (Mus musculus [8]): 20 mg/kg
ED50 (Mus musculus [1]): > 50 mg/kg
ED50 (Mus musculus [6]): > 50 mg/kg
ED50 (Mus musculus [7]): > 1000 mg/kg

CCCN1CCN(/C=C2\N=C3CN=C(c4ccccc4)c4cc(Cl)ccc4N3C2=O)CC1
ED50 (Mus musculus [8]): 1.3 mg/kg
ED50 (Mus musculus [1]): 2.7 mg/kg
ED50 (Mus musculus [2]): 1 mg/kg
ED50 (Mus musculus [3]): 6.4 mg/kg
ED50 (Mus musculus [4]): 3.6 mg/kg
ED50 (Mus musculus [5]): 3.2 mg/kg
ED50 (Mus musculus [6]): 1.1 mg/kg
ED50 (Mus musculus [7]): > 1000 mg/kg

CCN1CCN(/C=C2\N=C3CN=C(c4ccccc4F)c4cc(Cl)ccc4N3C2=O)CC1
ED50 (Mus musculus [8]): 0.48 mg/kg
ED50 (Mus musculus [1]): 1.55 mg/kg
ED50 (Mus musculus [2]): 0.155 mg/kg
ED50 (Mus musculus [3]): 1.6 mg/kg
ED50 (Mus musculus [4]): 2.8 mg/kg
ED50 (Mus musculus [5]): 2.35 mg/kg
ED50 (Mus musculus [6]): 0.7 mg/kg
ED50 (Mus musculus [7]): > 1000 mg/kg

O=C1/C(=C/N2CCN(CC3CC3)CC2)N=C2CN=C(c3ccccc3)c3cc(Cl)ccc3N12
ED50 (Mus musculus [8]): 4.65 mg/kg
ED50 (Mus musculus [1]): 10.5 mg/kg
ED50 (Mus musculus [2]): 3.5 mg/kg
ED50 (Mus musculus [3]): 30 mg/kg
ED50 (Mus musculus [4]): 30 mg/kg
ED50 (Mus musculus [5]): 25 mg/kg
ED50 (Mus musculus [6]): 6.2 mg/kg
ED50 (Mus musculus [7]): > 1000 mg/kg

CN1CCN(/C=C2\N=C3CN=C(c4ccccc4Cl)c4cc(Cl)ccc4N3C2=O)CC1
ED50 (Mus musculus [8]): 0.2 mg/kg
ED50 (Mus musculus [1]): 2.1 mg/kg
ED50 (Mus musculus [2]): 0.165 mg/kg
ED50 (Mus musculus [3]): 1.8 mg/kg
ED50 (Mus musculus [4]): 0.074 mg/kg
ED50 (Mus musculus [5]): 1.6 mg/kg
ED50 (Mus musculus [6]): 0.78 mg/kg
ED50 (Mus musculus [7]): > 1000 mg/kg

CC(C)(C)N/C=C1\N=C2CN=C(c3ccccc3)c3cc(Cl)ccc3N2C1=O
ED50 (Mus musculus [8]): 1.1 mg/kg
ED50 (Mus musculus [1]): 19 mg/kg
ED50 (Mus musculus [2]): 3.25 mg/kg
ED50 (Mus musculus [3]): > 50 mg/kg
ED50 (Mus musculus [4]): 5 mg/kg
ED50 (Mus musculus [5]): 14 mg/kg
ED50 (Mus musculus [6]): 14.5 mg/kg
ED50 (Mus musculus [7]): > 1000 mg/kg

O=CN1CCN(/C=C2\N=C3CN=C(c4ccccc4)c4cc(Cl)ccc4N3C2=O)CC1
ED50 (Mus musculus [8]): > 20 mg/kg
ED50 (Mus musculus [5]): > 50 mg/kg
ED50 (Mus musculus [7]): > 1000 mg/kg

CN(C)CCN(C)/C=C1\N=C2CN=C(c3ccccc3)c3cc(Cl)ccc3N2C1=O
ED50 (Mus musculus [3]): > 50 mg/kg
ED50 (Mus musculus [4]): > 50 mg/kg
ED50 (Mus musculus [5]): > 50 mg/kg
ED50 (Mus musculus [6]): > 50 mg/kg
ED50 (Mus musculus [7]): > 1000 mg/kg
